In patent publication US6087355A, “Cephalosporin antibiotics” (Microcide Pharmaceuticals, Inc., priority 1996, dated 2000):
Converted amounts (≈) assume the structure as drawn. Counter-ions that a name gives are not always drawn.

Experiments:
[1] = tested on: S. aureus Col8A(Meth^S)(lac^-); test: In vitro MIC, agar dilution; assay type: cell-based; conditions: for MIC: Staphylococcus aureus, S. aureus Col8A(Meth^S)(lac^-), read-out: minimum inhibitory concentration (MIC)
Procedure, shortened: (§1)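 Two-fold dilutions (128 to ≤0.25 μg/mL, in duplicate) were poured into Mueller-Hinton agar. Log-phase broth cultures were spot-inoculated at about 10^4 cfu per spot and incubated 35-36°C for 16-20 hours; the MIC was the lowest concentration inhibiting growth. Col is a high-level PBP2a producer; Col 8A is its isogenic PBP2a-lacking partner.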

[2] = tested on: S. aureus strain ATCC 13709 (methicillin-susceptible); test: Murine model for lethal bacteremic peritonitis; assay type: in vivo, female Swiss-Webster mice; conditions: Staphylococcus aureus, ATCC13709, SC, 72 h; for responders at 0.3125 mg/kg / responders at 0.625 mg/kg / responders at 2.5 mg/kg / responders at 5 mg/kg: read-out: Survivors; for responders at 1.25 mg/kg: read-out: Survivors (converted); for ED50: two equal doses, IP challenge, read-out: ED50
Procedure, shortened: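 Female Swiss-Webster mice were challenged IP with an LD100 inoculum in 7% hog gastric mucin, then given test drug subcutaneously in twofold increments (0.01–512 mg/kg) as two equal doses at challenge and 2 h later, 10 mice per group. Survival was scored at 72 h; PD50 (total mg/kg) was derived by probit.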

[3] = tested on: S. aureus Col(Meth^R)(lac^-); test: In vitro MIC, agar dilution; assay type: cell-based; conditions: Staphylococcus aureus, read-out: minimum inhibitory concentration (MIC)
Procedure, shortened: as §1

[4] = tested on: S. aureus Spain #356(Meth^R); test: In vitro MIC, agar dilution; assay type: cell-based; conditions: Staphylococcus aureus, read-out: minimum inhibitory concentration (MIC)
Procedure, shortened: (§2)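 Test agent, dissolved in PBS pH 7.2 with Tween 20 or DMSO if needed, was mixed into molten Mueller-Hinton agar over a two-fold series topping at 128 μg/mL. Log-phase isolates were then spot-inoculated at ~10^4 cfu and incubated at 35-36 °C for 16-20 hours.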

E. faecalis VanB(Van^R) = test: In vitro MIC, agar dilution; assay type: cell-based; conditions: Enterococcus faecalis, read-out: minimum inhibitory concentration (MIC)
Procedure, shortened: as §2

[5] = tested on: S. aureus 76(Meth^R)(lac^+); test: In vitro MIC, agar dilution; assay type: cell-based; conditions: Staphylococcus aureus, read-out: minimum inhibitory concentration (MIC)
Procedure, shortened: as §2

[6] = tested on: S. aureus PC1(Meth^S)(lac^+); test: In vitro MIC, agar dilution; assay type: cell-based; conditions: Staphylococcus aureus, read-out: minimum inhibitory concentration (MIC)
Procedure, shortened: as §2

[7] = tested on: S. haemolyticus 05(Meth^R); test: In vitro MIC, agar dilution; assay type: cell-based; conditions: Staphylococcus haemolyticus, read-out: minimum inhibitory concentration (MIC)
Procedure, shortened: as §2

[8] = tested on: S. aureus ATCC 33593(Meth^R); test: In vitro MIC, agar dilution; assay type: cell-based; conditions: Staphylococcus aureus, ATCC33593, read-out: minimum inhibitory concentration (MIC)
Procedure, shortened: as §2

E. faecalis ATCC 29212 = test: In vitro MIC, agar dilution; assay type: cell-based; conditions: Enterococcus faecalis, ATCC29212, read-out: minimum inhibitory concentration (MIC)
Procedure, shortened: as §2

P. aeruginosa ATCC 27853 = test: In vitro MIC, agar dilution; assay type: cell-based; conditions: Pseudomonas aeruginosa, ATCC27853, read-out: minimum inhibitory concentration (MIC)
Procedure, shortened: as §2

S. aureus ATCC 29213 = test: In vitro MIC, agar dilution; assay type: cell-based; conditions: Staphylococcus aureus, ATCC29213, read-out: minimum inhibitory concentration (MIC)
Procedure, shortened: as §2

E. faecium VanA(Van^R) = test: In vitro MIC, agar dilution; assay type: cell-based; conditions: Enterococcus faecium, read-out: minimum inhibitory concentration (MIC)
Procedure, shortened: as §2

E. coli ATCC 25992 = test: In vitro MIC, agar dilution; assay type: cell-based; conditions: Escherichia coli, ATCC25992, read-out: minimum inhibitory concentration (MIC)
Procedure, shortened: as §2

E. faecium ATCC 35667 = test: In vitro MIC, agar dilution; assay type: cell-based; conditions: Enterococcus faecium, ATCC35667, read-out: minimum inhibitory concentration (MIC)
Procedure, shortened: as §2

[9] = tested on: S. aureus ATCC 13709(Meth^S); test: In vitro MIC, agar dilution; assay type: cell-based; conditions: Staphylococcus aureus, ATCC13709, S. aureus ATCC 13709(Meth^S); read-out: minimum inhibitory concentration (MIC)
Procedure, shortened: as §2

E. faecium A491(Amp^R) = test: In vitro MIC, agar dilution; assay type: cell-based; conditions: Enterococcus faecium, read-out: minimum inhibitory concentration (MIC)
Procedure, shortened: as §2

Row | SMILES | responders at 0.3125 mg/kg [2] [%] | responders at 0.625 mg/kg [2] [%] | responders at 1.25 mg/kg [2] [%] | responders at 2.5 mg/kg [2] [%] | responders at 5 mg/kg [2] [%] | ED50 [2] [mg/kg] | MIC [3] [µg/mL] | MIC [4] [µg/mL] | MIC [5] [µg/mL] | MIC [6] [µg/mL] | MIC [7] [µg/mL] | MIC [8] [µg/mL] | MIC (E. faecalis ATCC 29212) [µg/mL] | MIC (P. aeruginosa ATCC 27853) [µg/mL] | MIC (S. aureus ATCC 29213) [µg/mL] | MIC (E. faecium VanA(Van^R)) [µg/mL] | MIC (E. coli ATCC 25992) [µg/mL] | MIC (E. faecium ATCC 35667) [µg/mL] | MIC [9] [µg/mL] | MIC (E. faecium A491(Amp^R)) [µg/mL] | also measured
1 | CO/N=C(\C(=O)N[C@@H]1C(=O)N2C(C(=O)O)=C(COC(C)=O)CS[C@H]12)c1csc(N)n1 [Cefotaxime, cefotaxime, reference compound] |  |  |  |  |  |  |  |  |  |  |  |  |  |  |  |  |  |  |  |  | responsiveness of S. aureus Col 8A strain ([1]; in words): highly responsive
2 | NCCSCc1cnccc1SC1=C(C(=O)O)N2C(=O)[C@@H](NC(=O)/C(=N\OCCF)c3nc(N)sc3Cl)[C@H]2SC1.O=C(O)C(F)(F)F [Cmpd 33, (7R)-7-[(Z)-2-(2-amino-5-chlorothiazol-4-yl)-2-(2-fluoroethoxyimino)acetamido]-3-(3-aminoethylthiomethylpyrid-4-ylthio)-3-cephem-4-carboxylate, trifluoroacetic acid salt] | 0 | 40 | 50 | 90 | 80 | 1.19 | 1 | 1 | 1 | 0.25 | 2 | 2 | 0.13 | 32 | 0.25 | 2 | 1 | 0.5 | 0.13 | 8 | MIC (E. faecalis VanB(Van^R)): 0.13 µg/mL
3 | NC(=O)CSCc1cnccc1SC1=C(C(=O)O)N2C(=O)[C@@H](NC(=O)/C(=N\O)c3nc(N)sc3Cl)[C@H]2SC1 [Cmpd 39, (7R)-7-[(Z)-2-(2-amino-5-chlorothiazol-4-yl)-2-(hydroxyimino)acetamido]-3-(3-carboxamidomethylthiomethylpyrid-4-ylthio)-3-cephem-4-carboxylic acid] | 10 | 30 | 60 | 60 | 100 | 1.15 | 2 (≈ 3.25 µM) | 4 (≈ 6.49 µM) | 4 (≈ 6.49 µM) | 0.5 (≈ 0.812 µM) | 8 (≈ 13 µM) | 4 (≈ 6.49 µM) | 0.25 (≈ 0.406 µM) | > 32 | 0.25 (≈ 0.406 µM) | 2 (≈ 3.25 µM) | 8 (≈ 13 µM) | 1 (≈ 1.62 µM) | 0.25 (≈ 0.406 µM) | 32 (≈ 51.9 µM) | MIC (E. faecalis VanB(Van^R)): 0.25 µg/mL (≈ 0.406 µM)
4 | NCCCCCOCc1cnccc1SC1=C(C(=O)O)N2C(=O)[C@@H](NC(=O)/C(=N\O)c3nc(N)sc3Cl)[C@H]2SC1 [Cmpd 44, (7R)-7-[(Z)-2-(2-amino-5-chlorothiazol-4-yl)-2-(hydroxyimino)acetamido]-3-(3-(5-aminopentyloxymethyl)pyrid-4-ylthio)-3-cephem-4-carboxylate, trifluoroacetic acid salt] |  |  |  |  |  |  | 4 | 4 | 4 | 2 | 8 | 4 | 0.13 | > 32 | 0.5 | 2 | 8 | 4 | 2 | 16 | MIC [1]: 0.5 µg/mL
5 | NCCS(=O)(=O)Cc1cnccc1SC1=C(C(=O)O)N2C(=O)[C@@H](NC(=O)/C(=N\O)c3nc(N)sc3Cl)[C@H]2SC1 [Cmpd 45, (7R)-7-[(Z)-2-(2-amino-5-chlorothiazol-4-yl)-2-(hydroxyimino)acetamido]-3-(3-aminoethylsulfonylmethylpyrid-4-ylthio)-3-cephem-4-carboxylate, trifluoroacetic acid salt] |  |  |  |  |  |  | 4 | 4 | 4 | 2 | 8 | 4 | 0.13 | > 32 | 1 | 4 | 16 | 2 | 2 | 16 | MIC [1]: 1 µg/mL
6 | NCCCCOCc1cnccc1SC1=C(C(=O)O)N2C(=O)[C@@H](NC(=O)/C(=N\O)c3nc(N)sc3Cl)[C@H]2SC1 [Cmpd 46, (7R)-7-[(Z)-2-(2-amino-5-chlorothiazol-4-yl)-2-(hydroxyimino)acetamido]-3-(3-(4-aminobutyloxymethyl)pyrid-4-ylthio)-3-cephem-4-carboxylate, trifluoroacetic acid salt] |  |  |  |  |  |  | 2 | 4 | 4 | 2 | 8 | 2 | 0.13 | > 32 | 1 | 2 | 8 | 2 | 2 | 16 | MIC [1]: 0.5 µg/mL
7 | NCCCOCc1cnccc1SC1=C(C(=O)O)N2C(=O)[C@@H](NC(=O)/C(=N\O)c3nc(N)sc3Cl)[C@H]2SC1 [Cmpd 47, (7R)-7-[(Z)-2-(2-amino-5-chlorothiazol-4-yl)-2-(hydroxyimino)acetamido]-3-(3-(3-aminopropyloxymethyl)pyrid-4-ylthio)-3-cephem-4-carboxylate, trifluoroacetic acid salt] |  |  |  |  |  |  | 2 | 2 | 2 | 2 | 4 | 2 | 0.13 | > 32 | 1 | 2 | 8 | 2 | 2 | 16 | MIC [1]: 0.5 µg/mL
8 | Nc1nc(/C(=N/O)C(=O)N[C@@H]2C(=O)N3C(C(=O)O)=C(Sc4ccncc4CSCC(N)CO)CS[C@H]23)c(Cl)s1 (stereo partly drawn) [Cmpd 56, (7R)-7-[(Z)-2-(2-amino-5-chlorothiazol-4-yl)-2-(hydroxyimino)acetamido]-3-[3-(2RS-2-amino-3-hydroxyprop-1-ylthiomethyl)pyrid-4-ylthio]-3-cephem-4-carboxylate, trifluoroacetic acid salt] | 20 | 30 | 30 | 80 | 80 | 1.23 | 2 | 2 | 2 | 0.5 | 4 | 2 | 0.13 | > 32 | 0.5 | 1 | 8 | 1 | 0.25 | 8 | MIC (E. faecalis VanB(Van^R)): 2 µg/mL
9 | CNCCNCCSCc1cnccc1SC1=C(C(=O)O)N2C(=O)[C@@H](NC(=O)/C(=N\O)c3nc(N)sc3Cl)[C@H]2SC1 [Cmpd 57, (7R)-7-[(Z)-2-(2-amino-5-chlorothiazol-4-yl)-2-(hydroxyimino)acetamido]-3-(3-(N-methylaminoethylaminoethylthiomethyl)pyrid-4-ylthio)-3-cephem-4-carboxylate, trifluoroacetic acid salt] | 40 | 40 | 40 | 50 | 90 | 1.08 | 4 | 4 | 4 | 1 | 8 | 4 | 0.13 | > 32 | 1 | 2 | 4 | 1 | 0.5 | 16 | MIC (E. faecalis VanB(Van^R)): 4 µg/mL
